Where two headings read alike, the source gives them in different places.
Experiments:
[1] = molecular target: CT-L activity of purified 20S proteasome (Oryctolagus cuniculus, UniProt G1SU71+G1T4Q9); experiment: Proteolytic activity of purified 20S proteasome, CT-L; assay type: biochemical, rabbit; conditions: CT-L, Bortezomib vs PI-083
T80-Hras ovarian cells = experiment: MTT cell viability assay; assay type: cell-based, human; conditions: Homo sapiens, read-out: IC50 cell viability (MTT)
[2] = test system: primary multiple myeloma cells from patients' bone marrow; experiment: Proliferation of primary MM cells; assay type: cell-based, human; conditions: read-out: IC50 Proliferation
[3] = test system: primary multiple myeloma cells from patients' bone marrow; experiment: Cell death of primary MM cells; assay type: cell-based, human; conditions: read-out: IC50 Cell Death
[4] = test system: MCF-7 human breast tumors; experiment: MCF-7 xenograft in nude mice; assay type: in vivo; conditions: MCF-7 s.c. xenograft, 1 mpk i.p. 2x weekly
A549 human lung tumors = experiment: A549 xenograft in nude mice; assay type: in vivo; conditions: A549 s.c. xenograft, 1 mpk i.p. 2x weekly, start ~200 mm^3, 16 days
[5] = molecular target: tumor CT-L activity of the proteasome (Homo sapiens, UniProt P20618+P28074); experiment: Proteasome activity in A549 tumor lysates after in vivo treatment, CT-L; parameters: species or system nude mice; conditions: A549 tumors, 1 mpk i.p., 2 h after last injection
[6] = molecular target: tumor T-L activity of the proteasome (Homo sapiens, UniProt Q99436); experiment: Proteasome activity in A549 tumor lysates after in vivo treatment, T-L; parameters: species or system nude mice; conditions: A549 tumors, 1 mpk i.p., 2 h after last injection
[7] = molecular target: tumor PGPH activity of the proteasome (Homo sapiens, UniProt P28072); experiment: Proteasome activity in A549 tumor lysates after in vivo treatment, PGPH; parameters: species or system nude mice; conditions: A549 tumors, 1 mpk i.p., 2 h after last injection
[8] = test system: p27^Kip1 levels in A549 lung cancer cells; experiment: Western blot of p27Kip1 in cultured A549 cells; assay type: cell-based, human; conditions: 48 h
[9] = test system: MCF-7/MCF-10A, T80-Hras/T80, C7-Kras/C7 cells; experiment: TUNEL apoptosis assay in 3 pairs of cell lines; assay type: cell-based, human; conditions: 24 h, any of the 6 cell lines
[10] = test system: all cancer and non-transformed cell lines except RPMI-8226; experiment: MTT cell viability assay, panel of cancer and non-transformed cell lines; assay type: cell-based; conditions: Homo sapiens, RPMI-8226, 24 h, read-out: IC50 cell viability (MTT)
[11] = Homo sapiens, Multiple myeloma cell, 24 h

CT-L activity of purified 20S proteasome, sequence (G1T4Q9 60-263): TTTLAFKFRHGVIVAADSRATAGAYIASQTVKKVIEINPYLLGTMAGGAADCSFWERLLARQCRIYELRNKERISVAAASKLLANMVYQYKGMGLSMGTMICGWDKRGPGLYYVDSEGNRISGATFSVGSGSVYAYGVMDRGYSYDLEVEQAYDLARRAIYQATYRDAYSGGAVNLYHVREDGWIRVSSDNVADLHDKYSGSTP
CT-L activity of purified 20S proteasome, sequence (G1SU71 29-241): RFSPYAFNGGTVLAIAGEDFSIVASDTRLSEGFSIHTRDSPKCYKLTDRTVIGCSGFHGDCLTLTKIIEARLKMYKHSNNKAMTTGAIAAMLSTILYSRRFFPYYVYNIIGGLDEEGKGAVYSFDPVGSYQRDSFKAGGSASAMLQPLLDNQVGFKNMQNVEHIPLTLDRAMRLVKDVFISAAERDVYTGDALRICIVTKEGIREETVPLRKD

## CC(C)C[C@H](NC(=O)[C@H](Cc1ccccc1)NC(=O)c1cnccn1)B(O)O [Bortezomib]
[1]
  difference in potency between Bortezomib and PI-083: 100 fold
T80-Hras ovarian cells; 24 h
  IC50: > 30 µM
T80-Hras ovarian cells; 72 h
  IC50: 0.024 ± 0.01 µM
[2]; [11]
  IC50: > 10 µM
[2]; patient 1, 24 h
  IC50: > 10 µM
[2]; patient 2, 24 h
  IC50: > 10 µM
[2]; patient 3, 24 h
  IC50: > 10 µM
[2]; patient 5, 24 h
  IC50: > 10 µM
[2]; patient 6, 24 h
  IC50: > 10 µM
[2]; patient 7, 24 h
  IC50: > 10 µM
[2]; patient 8, 24 h
  IC50: > 10 µM
[2]; patient 9, 24 h
  IC50: > 10 µM
[2]; patient 10, 24 h
  IC50: > 10 µM
[3]; [11]
  IC50: > 10 µM
[3]; patient 1, 24 h
  IC50: > 10 µM
[3]; patient 2, 24 h
  IC50: > 10 µM
[3]; patient 3, 24 h
  IC50: > 10 µM
[3]; patient 5, 24 h
  IC50: > 10 µM
[3]; patient 6, 24 h
  IC50: > 10 µM
[3]; patient 7, 24 h
  IC50: > 10 µM
[3]; patient 8, 24 h
  IC50: > 10 µM
[3]; patient 9, 24 h
  IC50: > 10 µM
[3]; patient 10, 24 h
  IC50: > 10 µM
[4]
  antitumor effect (in words): ineffective
[4]; start ~200 mm^3, 16 days
  average tumor size: 1,448 ± 145 mm^3
A549 human lung tumors
  average tumor size: 864 ± 207 mm^3
[5]
  inhibition of tumor CT-L activity vs vehicle-treated controls: 70%
[6]
  inhibition of tumor T-L activity vs vehicle-treated controls: 0%
[7]
  inhibition of tumor PGPH activity vs vehicle-treated controls: 68%
[8]
  p27^Kip1 levels: marked increase
[9]
  apoptosis (TUNEL): induced little apoptosis
[10]
  IC50: > 30 µM
